Data set [1] has as its target T1, recombinant human NK1 receptors (Homo sapiens, UniProt P25103).
T1 construct: expressed in transfected cells; host or cells: Chinese Hamster Ovary (CHO) cells, membrane preparation
Nature of the data set: NK1-receptor binding affinity: displacement of [3H]-substance P from CHO cell membranes. The following applies: average of at least two determinations, [3H]-substance P displacement, read-out: pki (negative logarithm of the inhibition constant Ki of displacer ligands) (converted). As for the experimental part: Thus ligand binding was performed in 0.4 ml of 50 mM HEPES, pH 7.4, containing 3 mM MnCl2, 0.02% BSA, 0.5 nM [^3H]Substance P (30+56 Ci/mmol, Amersham), a final membrane concentration of 25 μg of protein/ml, and the test compounds. The incubation proceeded at room temperature for 40 min.
The affinity of the compound of the invention for NK1 receptor was determined using the NK1-receptor binding affinity method measuring in vitro by the compounds' ability to displace [3H]—substance P (SP) from recombinant human NK1 receptors expressed in Chinese Hamster Ovary (CHO) cell membranes. The affinity values are expressed as negative logarithm of the inhibition constant (Ki) of displacer ligands (pKi).

The target in a further data set is T2, nk1 receptor (Meriones unguiculatus, UniProt Q5DUB1).
T2 construct: from tissue; host or cells: living gerbil, central NK1 receptors (agonist infused icv)
T2 sequence (Q5DUB1 whole entry, the tested form may be a part): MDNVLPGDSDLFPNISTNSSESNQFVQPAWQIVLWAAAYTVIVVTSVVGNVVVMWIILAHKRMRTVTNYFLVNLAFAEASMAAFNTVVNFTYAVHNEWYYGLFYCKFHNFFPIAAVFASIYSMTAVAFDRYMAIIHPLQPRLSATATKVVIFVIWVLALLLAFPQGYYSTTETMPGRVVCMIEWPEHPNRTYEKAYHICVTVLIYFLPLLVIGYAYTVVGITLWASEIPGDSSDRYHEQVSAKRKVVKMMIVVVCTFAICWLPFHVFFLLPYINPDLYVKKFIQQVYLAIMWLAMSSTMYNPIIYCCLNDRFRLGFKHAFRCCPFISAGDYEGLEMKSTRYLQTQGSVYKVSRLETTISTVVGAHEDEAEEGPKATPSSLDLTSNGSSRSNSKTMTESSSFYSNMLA
Nature of the data set: gerbil foot tapping model (hind foot tapping induced by icv NK1 agonist). In kind it is in vivo. The following applies: oral administration, one hour before icv NK1 agonist; dose inhibiting tapping by 50%. As for the experimental part:
The action of the compounds of the invention at the NK1 receptor may be determined by using conventional tests. Thus the ability to bind at the NK1 receptor was determined using the gerbil foot tapping model as described by Rupniak & Williams, Eur. J. of Pharmacol., 1994.
The ability of the compounds of the invention at the nk1 receptor may be determined using the gerbil foot tapping model as described by Rupniak & Williams, Eur. Jour. of Pharmacol., 1994.
The compound was administered orally and one hour later an NK1 agonist (e.g. delta-Aminovaleryl^6[Pro^9,Me-Leu^10]-substance P (7-11)) (3 pmol in 5 μL, icv) was infused directly in the cerebral ventricules of the animals. The duration of hind foot tapping induced by the NK1 agonist (e.g. delta-Aminovaleryl^6[Pro^9,Me-Leu^10]-substance P (7-11)) was recorded continuously for 3 min using a stopclock. […] Alternatively the compounds may be administered subcutaneously or intraperitoneally.

Each structure is given as a SMILES string. Counter-ions that a name gives are not always drawn.

T1 sequence (P25103 whole entry): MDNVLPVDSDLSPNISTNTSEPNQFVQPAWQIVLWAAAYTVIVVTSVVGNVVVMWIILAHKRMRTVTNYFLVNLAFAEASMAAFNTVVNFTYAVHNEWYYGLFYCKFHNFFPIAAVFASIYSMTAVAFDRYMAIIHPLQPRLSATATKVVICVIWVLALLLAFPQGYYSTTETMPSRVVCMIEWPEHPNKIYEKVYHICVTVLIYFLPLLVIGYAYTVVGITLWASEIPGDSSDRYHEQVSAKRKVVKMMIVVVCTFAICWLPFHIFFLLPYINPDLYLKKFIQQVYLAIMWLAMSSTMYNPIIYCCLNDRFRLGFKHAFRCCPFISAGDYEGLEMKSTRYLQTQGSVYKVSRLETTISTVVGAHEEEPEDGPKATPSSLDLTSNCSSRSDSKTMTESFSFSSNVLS

With `CC(C)c1cccc(C2CNCCN2C(=O)N(C)Cc2cc(C(F)(F)F)cc(C(F)(F)F)c2)c1.Cl` (stereo not drawn), the melting point fell in the range of 77 to 80 °C. Take `Cc1cc(F)ccc1[C@H]1CNCCN1C(=O)N1CCCCC1c1cc(C(F)(F)F)cc(C(F)(F)F)c1` (single isomer, unassigned) [Example 29, hydrochloride]: the Ki in data set [1] is 1.35 nM. As for `CN(Cc1cc(C(F)(F)F)cc(C(F)(F)F)c1)C(=O)N1CCNCC1c1ccc(F)cc1F.Cl` (stereo not drawn) [Example 5, 2-(2,4-Difluoro-phenyl)-piperazine-1-carboxylic acid (3,5-bis-trifluoromethyl-benzyl)-methyl-amide hydrochloride], the melting point fell in the range of 220 to 230 °C. In addition, the Ki in data set [1] is 2.14 nM. `CC(=O)O.Cc1cc(F)ccc1[C@H]1CNCCN1C(=O)N(C)[C@@H](C)c1cc(C(F)(F)F)cc(C(F)(F)F)c1` [Example 19, 2-(S)-(4-Fluoro-2-methyl-phenyl)-piperazine-1-carboxylic acid [1-(S)-(3,5-bis-trifluoromethyl-phenyl)-ethyl]-methyl-amide acetate] yielded an ED50(mg/kg po) at nk1 receptor of 0.04 mg/kg.

With `Cc1cc(F)ccc1C1CNCCN1C(=O)N(C)C(c1cc(C(F)(F)F)cc(C(F)(F)F)c1)C1CC1` (single isomer, unassigned) [Example 34, 2(4-Fluoro-2-methyl-phenyl)-piperazine-1-carboxylic acid [(3,5-bis-trifluoromethyl-phenyl)-cyclopropyl-methyl]-methyl-amide hydrochloride], the inhibitory constant (Ki) in data set [1] is 0.794 nM. On the same count and under the same terms, the figure for `Cc1cc(F)ccc1[C@H]1CNCCN1C(=O)N(C)C1(c2cc(C(F)(F)F)cc(C(F)(F)F)c2)CC1` [Example 25, 2-(S)-(4-Fluoro-2-methyl-phenyl)-piperazine-1-carboxylic acid [1-3,5-bis-trifluoromethyl-phenyl)-cyclopropyl]-methyl-amide hydrochloride] is 0.479 nM. Molecule `CS(=O)(=O)O.Cc1cc(F)ccc1[C@H]1CNCCN1C(=O)N(C)[C@H](C)c1cc(C(F)(F)F)cc(C(F)(F)F)c1` [Example 36, 2(S)-(4-Fluoro-2-methyl-phenyl)-piperazine-1-carboxylic acid [1-(R)-(3,5-bis-trifluoromethyl-phenyl)-ethyl]-methyl-amide methansulphonate] came in with an ED50(mg/kg po) at nk1 receptor of 0.05 mg/kg. With `CN(Cc1ccc(C(F)(F)F)c(C(F)(F)F)c1)C(=O)N1CCNCC1c1ccc(F)cc1.Cl` (stereo not drawn) [Example 12], the melting point is greater than 200 °C. With `CN(Cc1cc(C(F)(F)F)cc(C(F)(F)F)c1)C(=O)N1CCNCC1c1ccc(Cl)cc1Cl` (stereo not drawn) [Example 14, 2-(2,4-Dichloro-phenyl)-piperazine-1-carboxylic acid (3,5-bistrifluoro methyl-benzyl)-methyl-amide hydrochloride], the Ki in data set [1] is 2 nM. In turn, `Cc1cc(F)ccc1C1CNCC(C)N1C(=O)N(C)Cc1cc(C(F)(F)F)cc(C(F)(F)F)c1.Cl` (stereo not drawn) [Example 24, 2-(2-Methyl-4-fluoro-phenyl)-6-methyl-piperazine-1-carboxylic acid (3,5-bis-trifluoromethyl-benzyl)-methyl-amide hydrochloride salt] returned a melting point greater than 200 °C. In addition, the Ki in data set [1] is 0.661 nM. For `Cc1cc(F)ccc1C1CNCCN1C(=O)N(C)C(c1cc(C(F)(F)F)cc(C(F)(F)F)c1)C(C)C` (single isomer, unassigned) [Example 32, 2-(4-Fluoro-2-methyl-phenyl)-piperazine-1-carboxylic acid [1-(3,5-bis-trifluoromethyl-phenyl)-2-methyl-propyl]-methyl-amide hydrochloride], in data set [1], the inhibition constant Ki is 1.02 nM.

For the molecule `Cc1cc(F)ccc1C1CNCCN1C(=O)N(C)Cc1cc(C(F)(F)F)cc(C(F)(F)F)c1.Cl` (stereo not drawn) [Example 1, 2-(4-Fluoro-2-methyl-phenyl)-piperazine-1carboxylic acid (3,5-bistrifluoromethyl-benzyl)-methyl-amide hydrochloride], the melting point was greater than 220 °C. In addition, the Ki in data set [1] is 1.07 nM.

With `Cc1cc(C2CNCCN2C(=O)N(C)Cc2cc(C(F)(F)F)cc(C(F)(F)F)c2)ccc1F.Cl` (stereo not drawn) [Example 4, 2(4-Fluoro-3-methyl-phenyl)-piperazine-1-carboxylic acid (3,5-bis-trifluoromethyl-benzyl)-methyl-amide hydrochloride], the melting point fell in the range of 70 to 72 °C. Besides, the Ki in data set [1] was 4.37 nM. Consider `Cc1cc(F)ccc1[C@H]1CNCCN1C(=O)N(C)Cc1cc(C(F)(F)F)cc(C(F)(F)F)c1` [Example 8, (−)-2-(S)-(4-Fluoro-2-methyl-phenyl)-piperazine-1-carboxylic acid (3,5-bis-trifluoromethyl-benzyl)-methyl-amide hydrochloride], for which, in data set [1], the inhibitory constant (Ki) was 0.427 nM. The same measure, in the same setting: as for `Cc1cc(F)ccc1[C@H]1CN(CCN)CCN1C(=O)N(C)Cc1cc(C(F)(F)F)cc(C(F)(F)F)c1` [Example 22, 4(2-Aminoethyl)-2-(S)-(4-fluoro-2-methyl-phenyl)-piperazine-1-carboxylic acid (3,5-bis-trifluoromethyl-benzyl)-methyl-amide dihydrochloride Salt], the figure is 0.407 nM; as for `Cc1cc(F)ccc1C1C(C)NCCN1C(=O)N(C)Cc1cc(C(F)(F)F)cc(C(F)(F)F)c1` (stereo not drawn) [Example 23, 2-(4-Fluoro-2-methyl-phenyl)-3-methyl-piperazine-1-carboxylic acid (3,5-bis-trifluoromethyl-benzyl)-methyl-amide hydrochloride salt], 0.479 nM. As to `Cc1cc(F)ccc1[C@H]1CNCCN1C(=O)N(C)C(C)(C)c1cc(C(F)(F)F)cc(C(F)(F)F)c1.Cl` [Example 21, 2-(S)-(4-Fluoro-2-methyl-phenyl)-piperazine-1-carboxylic acid [1-(3,5-bis-trifluoromethyl-phenyl)-1-methyl-ethyl]-methyl-amide hydrochloride], the ED50(mg/kg po) at nk1 receptor came to 0.4 mg/kg. In addition, in data set [1], the Ki is 1.12 nM. For `Cc1cc(F)ccc1C1CNCCN1C(=O)N1CC=CCC1c1cc(C(F)(F)F)cc(C(F)(F)F)c1` (single isomer, unassigned) [Example 28, hydrochloride], the inhibition constant Ki in data set [1] was 0.49 nM. Still for that read-out and setting: as for `CN(Cc1cc(C(F)(F)F)cc(C(F)(F)F)c1)C(=O)N1CCNCC1c1ccc(F)cc1` (stereo not drawn) [Example 12, hydrochloride], the figure is 2 nM.

Take `C=CCC(c1cc(C(F)(F)F)cc(C(F)(F)F)c1)N(C)C(=O)N1CCNCC1c1ccc(F)cc1C` (single isomer, unassigned) [Example 30, 2-(4-Fluoro-2-methyl-phenyl)-piperazine-1-carboxylic acid [1-(3,5-bis-trifluoromethyl-phenyl)-but-3-enyl]-methyl-amide hydrochloride]: the Ki in data set [1] was 1.66 nM. On to `Cc1cc(F)ccc1[C@H]1CN(C(=O)CN)CCN1C(=O)N(C)Cc1cc(C(F)(F)F)cc(C(F)(F)F)c1.Cl` [Example 20, 4-(2-Amino-acetyl)-2-(S)-(4-fluoro-2-methyl-phenyl)-piperazine-1-carboxylic acid (3,5-bis-trifluoromethyl-benzyl)-methyl-amide hydrochloride], for which the ED50(mg/kg po) on nk1 receptor turned out to be 0.065 mg/kg. Also, in data set [1], the inhibition constant (Ki) was 0.347 nM.

Broadly, the melting point is the temperature, or range, at which the solid turns liquid. In general, Ki refers to a dissociation constant, usually derived from enzyme kinetics or from competition with a known ligand.

The values above are taken from patent USRE39921E1, “Chemical compounds” (SmithKline Beecham Corporation, priority 1999, dated 2007).
